Reference: US10125097B2, “1- [1-(benzoyl)-pyrrolidine-2-carbonyl]-pyrrolidine-2-carbonitrile derivatives” (UNIVERSITAT DE BARCELONA, priority 2012, dated 2018)
Read-outs that look alike come from different tables or passages of the source.

Key:
POP = POP (Homo sapiens (Human), UniProt P48147); details: non-competitive POP inhibitor; Park D H et al., Fitoterapia 2010; read-out: IC50 (POP inhibition); cited from earlier work
[1] = molecular target: human prolyl oligopeptidase (Homo sapiens (Human), UniProt P48147); experiment: POP inhibition assay (Z-G-P-AMC substrate, fluorimetric); format: biochemical
Experimental: Expression and Purification of Prolyl Oligopeptidase (POP)
POP was obtained by expression in E. coli and affinity purification using a His tail fusion according to a literature procedure (Tarragó T et al., ChemBioChem 2006; 7:827-33) summarized below:
hPOP expression: E. coli BL21 competent cells were transformed with pETM10 hPOP. To induce expression, a pre-culture of LB medium (50 mL) containing kanamycin (50 μg/mL) was inoculated with one colony and was grown overnight at 37° C. Next day, two cultures of LB medium (500 mL) were inoculated with the overnight culture (10 mL). The inoculated cultures were grown at 37° C. and 220 rpm until the OD595 was 1.2 (2.5-3 hours). IPTG was then added (final concentration of 1 mM) and induction was performed overnight at 25° C. Cells were harvested (3500 g, 15 min, 4° C.) and the pellet was suspended in suspension buffer (50 mL) [Tris-HCl pH 8 (50 mM), NaCl (300 mM), imidazole (1 mM)] and sonicated with use of four cycles (each consisting of 15 sec of sonication and 15 sec of rest) at an intensity of 50% and 0.5 pulses, the sample being kept on ice. After sonication, the sample was centrifuged (40 000 g, 30 min, 4° C.) and the supernatant was used immediately for POP purification. An ÁKTA explorer FPLC system was used for purification. The supernatant was applied at a flow of 1 mL/min to a HiTrapQuelating column (5 mL) previously equilibrated with 5 column volumes of suspension buffer. The column was washed with suspension buffer until the absorbance at 280 nm returned to basal level. The column was then rinsed with 5 volumes of washing buffer (50 mM Tris-HCl, pH 8, 300 mM NaCl, 30 mM imidazole). The elution was performed with 4 volumes of elution buffer (50 mM Tris-HCl, pH 8, 300 mM NaCl, 500 mM imidazole). Fractions (4 mL) were collected during the entire elution. POP activity was checked in all fractions and positive ones were analyzed by SDS-PAGE and stained with Biosafe Comassie Stain G-250. Positive fractions were collected and desalted by use of a HiPrep 26/10 Desalting column with Tris-HCl (50 mM, pH 8) as buffer. Recombinant hPOP was quantified with the Bio-Rad Protein Assay with BSA as standard. Aliquots of the recombinant enzyme were prepared and immediately frozen with liquid nitrogen and stored at −80° C.
POP activity was determined following the method described by Toide et al (Toide K et al., J. Pharmacol. Exp. Ther. 1995; 274:1370-8), using Z-G-P-AMC (N-benzyloxycarbonyl-Gly-Pro-methylcoumarinyl-7-amide) as POP substrate. The reactions were performed in 96-well microtiter plates, which allowed simultaneous monitoring of multiple reactions. For each reaction, activity buffer (134 μl, 100 mM Na/K phosphate buffer, pH 8.0) was pre-incubated for 15 min at 37° C. with hPOP (ranging from 20 to 60 nM, depending on the activity of the hPOP batch) and the corresponding new compound solution (3 μl). A stock solution of new compound was prepared in DMSO (100 mM), and dilutions were prepared from this stock solution with DMSO. Alternatively, the reactions were performed using another activity buffer (141 μL, 100 mM Tris-acetate, […], 1 mM DTT, pH 7.3), pre-incubating with hPOP (10 nM) and the corresponding new compound solution (3 μl) (Conditions B).
After preincubation, Z-G-P-AMC (10 μl, 3 mM in 40% 1,4-dioxane) was added (3 μl, 1.5 mM in 40% of 1,4-dioxane, in Conditions B), and the reaction was incubated for 1 hour at 37° C. The reaction was stopped by adding sodium acetate (150 μl, 1 M, pH 4) and the formation of AMC was measured fluorimetrically. The excitation and emission wavelengths were 360/40 and 485/20 nm, respectively.
Several concentration points (ranging from 25 μM to 400 μM) were measured for each compound. The inhibitory activity on prolyl oligopeptidase was calculated according to eq 1. For each new compound, the fluorescence in the presence (a) and in the absence of hPOP (b) was measured. […]

[2] = Parallel artificial membrane permeability assay (PAMPA); format: in vitro ADME; details: 200 μM initial concentration, pH 7.4, 4 hours, room temperature; for Papp at 4 h, 200 μM: PAMPA, read-out: Effective permeability Pe
Experimental: Parallel artificial membrane permeability assay (PAMPA) described in Kansy M et al., J. Med. Chem. 1998; 41(7):1007-10 was used to determine the capacity of compounds to cross the Blood-Brain Barrier (BBB) by passive diffusion (Di L et al., Eur. J. Med. Chem. 2003; 38(3):223-32). The effective permeability (Pe) of the compounds was measured at an initial concentration of 200 μM. The buffer solution was prepared from a commercial concentrated one following the manufacturer's instructions. pH was adjusted to 7.4 using a 0.5 M NaOH solution. A stock solution of new compound was prepared in DMSO and diluted with buffer solution to a final 200 μM concentration (0.5% DMSO content). The PAMPA sandwich was separated and each donor well was filled with 200 μL of the compound solution. The acceptor plate was placed into the donor plate, ensuring that the underside of the membrane was in contact with buffer. 4 μL of the mixture of phospholipids (20 mg/mL) in dodecane was added to the filter of each well, and 200 μL of buffer solution was added to the each acceptor well. The plate was covered and incubated at room temperature in a saturated humidity atmosphere for 4 hours under orbital agitation at 100 rpm. After 4 hours, the contents of the acceptor and donor compartments were analyzed by HPLC: 150 μL of each well from the donor plate and 150 μL of each well from the acceptor plate were transferred to HPLC vials, injecting each sample into a reverse-phase C18 column (150 mm×4.6 mm×5 μm, 100 Å) (100 μL/injection from the acceptor wells, 10 μL/injection from the donor wells and for t0 references). Transport was also confirmed by MALDI-TOF spectrometry.
The phospholipid mixture used was a porcine polar brain lipid extract, provided by Avanti polar lipids, with the following composition: 12.6% phosphatidylcholine (PC), 33.1% phosphatidylethanolamine (PE), 18.5% phosphatidylserine (PS), 4.1% phosphatidylinositol (PI), 0.8% phosphatidic acid and 30.9% of other compounds.
The effective permeability (Pe) after 4 hours was calculated using equation 2 and the percentage of transport was calculated using equation 3:
[formula] wherein: t is time (h) CA(t) is the compound concentration in the acceptor well at time t and CD(to) is the compound concentration in the donor well at to.

Chain of human prolyl oligopeptidase (P48147 whole entry): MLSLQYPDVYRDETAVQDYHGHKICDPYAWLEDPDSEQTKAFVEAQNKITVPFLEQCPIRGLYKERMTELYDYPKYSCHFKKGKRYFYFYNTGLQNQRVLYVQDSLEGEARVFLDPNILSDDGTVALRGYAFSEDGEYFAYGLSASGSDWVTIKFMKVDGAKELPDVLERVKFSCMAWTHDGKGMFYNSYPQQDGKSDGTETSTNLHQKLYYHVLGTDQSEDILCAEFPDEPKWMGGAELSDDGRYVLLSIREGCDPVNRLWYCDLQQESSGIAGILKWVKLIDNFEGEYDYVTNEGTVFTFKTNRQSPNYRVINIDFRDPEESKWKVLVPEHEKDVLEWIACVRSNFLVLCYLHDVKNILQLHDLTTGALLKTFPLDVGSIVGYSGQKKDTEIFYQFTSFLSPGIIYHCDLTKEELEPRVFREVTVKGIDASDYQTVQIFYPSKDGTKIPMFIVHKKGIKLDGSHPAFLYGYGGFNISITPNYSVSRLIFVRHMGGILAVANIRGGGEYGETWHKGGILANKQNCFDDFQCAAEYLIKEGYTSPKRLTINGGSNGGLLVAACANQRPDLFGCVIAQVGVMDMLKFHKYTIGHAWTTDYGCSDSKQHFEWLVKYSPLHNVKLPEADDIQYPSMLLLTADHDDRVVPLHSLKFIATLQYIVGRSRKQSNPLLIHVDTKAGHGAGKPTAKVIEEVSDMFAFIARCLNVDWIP
Chain of POP (P48147 whole entry): as above

IC50 ([1]; 100 mM Na/K phosphate buffer, pH 8.0, hPOP 20 to 60 nM, Z-G-P-AMC, 1 hour at 37° C., read-out: IC50, inhibition of human prolyl oligopeptidase)	% T (percentage of transport) [2]	Papp at 4 h, 200 μM [2]	IC50 ([1]; Conditions B: 100 mM Tris-acetate, 10 mM BSA, 1 mM DTT, pH 7.3, hPOP 10 nM, read-out: IC50, inhibition of human prolyl oligopeptidase, measured in conditions B)	Compound	IC50 (POP)
–	–	–	–	O=C(/C=C/c1ccc(O)c(O)c1)O[C@H](Cc1ccc(O)c(O)c1)C(=O)O [rosmarinic acid]	63700 nM
2140 nM	19.08%	5.02 ×10⁻⁶ cm/s	–	COc1cc(C(=O)N2CC(F)(F)C[C@H]2C(=O)N2CCC[C@H]2C#N)cc(OC(=O)C(C)(C)C)c1OC [Example 16, (S)-1-((2S)-1-(3-pivaloyloxy-4,5-dimethoxybenzoyl)-4,4-difluoropyrrolidine-2-carbonyl)pyrrolidine-2-carbonitrile]	–
–	11.91%	6.51 ×10⁻⁶ cm/s	487 nM	N#C[C@@H]1CCCN1C(=O)[C@@H]1CC(F)(F)CN1C(=O)c1cccc(OCc2ccccc2)c1 [Example 18, (S)-1-((S)-1-(3-(benzyloxy)benzoyl)-4,4-difluoropyrrolidine-2-carbonyl)pyrrolidine-2-carbonitrile]	–
